Values of other authors, collected in US5639783A, “Ketone derivatives” (Mitsubishi Chemical Corporation, priority 1991, dated 1997).

Assays:
[1] = test system: microtubule-associated protein; details: Brain Research, 526, p. 177 (1990); cited from earlier work
[2] = test system: aggregation of platelet; details: Thrombosis Research, 57, p. 847 (1990); cited from earlier work
[3] = test system: experimental muscular dystrophy hamster; details: Journal of Pharmacobio dynamics, 10, 678 (1987); cited from earlier work
[4] = test system: cardiac infarction animal models; details: Arzneimittel Forschung/Drug Research, 36 (1986); cited from earlier work
[5] = test system: axon in brain trauma models of rat; details: Journal of Neurosurgery, 65, p. 92 (1986); cited from earlier work

## CC(C)CCNC(=O)[C@H](CC(C)C)NC(=O)[C@H]1O[C@@H]1C(=O)O [E-64-C]
[1]
  degradation of microtubule-associated protein after brain ischemia: inhibits the degradation of microtubule-associated protein after the brain ischemia

## CCOC(=O)[C@H]1O[C@@H]1C(=O)N[C@@H](CC(C)C)C(=O)NCCC(C)C [E-64-d]
[2]
  aggregation of platelet caused by thrombin: suppressed aggregation of platelet caused by thrombin
[3]
  effect in experimental muscular dystrophy hamster: life-prolonging effect

## CCOC(=O)[C@@H]1O[C@H]1C(=O)NC(CC(C)C)C(=O)N1CCN(Cc2ccc(OC)c(OC)c2OC)CC1.CCOC(=O)[C@@H]1O[C@H]1C(=O)NC(CC(C)C)C(=O)N1CCN(Cc2ccc(OC)c(OC)c2OC)CC1.O=S(=O)(O)O (some centres unmarked) [NCO-700]
[4]
  effect on cardiac infarction: effective on cardiac infarction

## CC(=O)N[C@@H](CC(C)C)C(=O)N[C@@H](CC(C)C)C(=O)N[C@H](C=O)CCCNC(=N)N [leupeptin]
[5]
  protection of axon in brain trauma models: can protect axon
